Data from patent US11701345B2, “Car activator agents for cyclophosphamide-based treatments of cancer” (UNIVERSITY OF MARYLAND, BALTIMORE, priority 2017, dated 2023).
Entries after “also recorded” stand apart in the source; their conditions may differ.

Key:
CYP2B6 = experiment: Induction of CYP2B6 vs CYP3A4 mRNA (RT-PCR) and protein (Western blot) in human primary hepatocytes; assay type: cell-based; details: for hCAR activation with preferred expression of CYP2B6 protein: FIGS. 3B-3D
Description: HPHs were obtained from Bioreclamation, IVT. Hepatocytes with viability over 90% were seeded at 1.5×10^6 or 7.5×10^5 cells per well in 6- or 12-well collagen-coated plates. After 4 hours of attachment, cells were overlaid with Matrigel (0.25 mg/mL) in serum-free Williams E medium to form the sandwich culture. Following incubation for 36 hours, HPH were treated with DMSO (0.1%) or hCAR activator (i.e. CITCO or DL 5016) (1 mmol/L) for 24 or 72 hours for mRNA and protein detection, respectively. In separate experiments, wild-type (WT) and CAR-knockout (KO) HepaRG cells obtained from Sigma-Aldrich were cultured in 6- or 12-well collagen-coated plates. Cells were further treated with DMSO or hCAR activator.
Total RNA from HPH and lymphoma cells was isolated with TRizol Reagent (Life Technologies) and reverse transcribed using a High Capacity cDNA Archive kit (Applied Biosystems) following the manufacturers' instructions. mRNA expression of CYP2B6, CYP3A4, was normalized against that of GAPDH. Real-time PCR assays were performed in 96-well optical plates on a StepOnePlus Real-Time PCR System with SYBR Green PCR Master Mix (Applied Biosystems). The primer sequences used for real-time PCR analyses included: CYP2B6: 50-[…]-30 and 50-CCTTCACCAAGACAAATC-CGC-30; CYP3A4: 50-[…]-30 and 50[…]-30. Fold induction of genes over control was determined as 2DDCt, where DCt is representative of the cycle threshold number difference between the target gene and GAPDH and DDCt represents the relative change in the intergroup variations.
(§1) Homogenate proteins from treated HPH, H9c2 or HepaRG cells were resolved on NuPAGE Novex Bis-Tris 4% to 12% gels (Life Technologies) and electrophoretically transferred onto immobilon-P polyvinylidene difluoride membranes. Membranes were incubated with specific antibodies against human CAR (Perseus Proteomics), cleaved caspase-3 (Cell Signaling Technology), or g-H2AX (Millipore), diluted 1:1,000, 1:1,000, and 1:400, respectively. b-Actin was used to normalize protein loading. Following incubation with horseradish peroxidase goat antimouse or anti-rabbit IgG antibody, membranes were developed using SuperSignal West Pico Chemiluminescent Substrate (Thermo Scientific). Western blot signals were quantified by densitometry using ImageJ software from the National Institutes of Health.
The human primary hepatocytes from human donor were treated with vehicle control (0.1% DMSO) or DL5016 at a concentration ranging from 0.1 μM to 1 μM for 24 h and 72 h. The expression mRNA for CYP2B6 and CYP3A4 and CYP2B6 and CYP3A4 protein were analyzed at the time point of 24 h and 72 h respectively.

hCAR = biological target: T1, hCAR (Homo sapiens, UniProt Q14994, INS274A); experiment: hCAR-mediated CYP2B6 luciferase reporter gene activation in transfected HepG2 cells; assay type: cell-based; details: for activation of hCAR: concentrations under 1 μm, FIGS. 3E-3J
T1 construct: expressed in transfected cells; host or cells: HepG2
T1 sequence (Q14994 with tags, fused parts or gaps isoform Q14994-2 INS270A): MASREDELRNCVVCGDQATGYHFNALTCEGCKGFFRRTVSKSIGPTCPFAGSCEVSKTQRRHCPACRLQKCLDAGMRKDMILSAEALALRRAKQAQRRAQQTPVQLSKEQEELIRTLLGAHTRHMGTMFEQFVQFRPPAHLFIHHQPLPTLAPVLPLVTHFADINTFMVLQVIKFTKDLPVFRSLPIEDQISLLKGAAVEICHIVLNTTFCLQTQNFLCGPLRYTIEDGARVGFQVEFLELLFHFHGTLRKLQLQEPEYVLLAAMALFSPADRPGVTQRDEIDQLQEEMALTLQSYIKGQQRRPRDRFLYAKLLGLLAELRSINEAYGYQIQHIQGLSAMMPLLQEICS
T1 sequence (P19793 1-462 partner): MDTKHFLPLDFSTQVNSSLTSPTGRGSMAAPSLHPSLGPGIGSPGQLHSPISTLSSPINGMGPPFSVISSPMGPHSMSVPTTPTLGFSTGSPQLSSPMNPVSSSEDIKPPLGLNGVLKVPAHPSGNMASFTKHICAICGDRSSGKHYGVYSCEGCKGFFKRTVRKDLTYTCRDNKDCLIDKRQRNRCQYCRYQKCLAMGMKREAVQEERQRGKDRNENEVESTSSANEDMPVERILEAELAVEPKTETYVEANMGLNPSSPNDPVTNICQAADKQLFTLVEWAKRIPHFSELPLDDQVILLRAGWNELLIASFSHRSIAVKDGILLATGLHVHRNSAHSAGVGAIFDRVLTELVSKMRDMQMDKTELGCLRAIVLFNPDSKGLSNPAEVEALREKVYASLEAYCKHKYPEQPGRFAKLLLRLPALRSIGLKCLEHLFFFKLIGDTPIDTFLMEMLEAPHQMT
Description: (§2) Using CITCO as a model compound, the biological activity of CITCO has been evaluated for its selective activation of hCAR vs. hPXR in luciferase reporter assays, and its effects on CYP2B6 expression at both mRNA and protein levels in cultured human primary hepatocytes (See FIGS. 5A-B).
HepG2 cells were transfected with hCAR1+A expression plasmid and CYP2B6-2.2k firely luciferase reporter construct. Transfected cells were treated with vehicle control (0.1% DMSO), CITCO and DL5016 at indicated concentrations for 24 h, CYP2B6 reported activities were normalized as folds over vehicle control and are expressed as means±SD (n=3). * p<0.05; ***, p<0.001. The results for the effects of DL 5016 compared with CITCO on hCAR-mediated CYP2B6 reported gene activation are shown in FIG. 2.

hPXR = biological target: T2, hPXR (Homo sapiens, UniProt O75469); experiment: hPXR luciferase reporter assay; assay type: cell-based; details: concentrations under 1 μm; FIGS. 3E-3J
T2 sequence (O75469 1-434): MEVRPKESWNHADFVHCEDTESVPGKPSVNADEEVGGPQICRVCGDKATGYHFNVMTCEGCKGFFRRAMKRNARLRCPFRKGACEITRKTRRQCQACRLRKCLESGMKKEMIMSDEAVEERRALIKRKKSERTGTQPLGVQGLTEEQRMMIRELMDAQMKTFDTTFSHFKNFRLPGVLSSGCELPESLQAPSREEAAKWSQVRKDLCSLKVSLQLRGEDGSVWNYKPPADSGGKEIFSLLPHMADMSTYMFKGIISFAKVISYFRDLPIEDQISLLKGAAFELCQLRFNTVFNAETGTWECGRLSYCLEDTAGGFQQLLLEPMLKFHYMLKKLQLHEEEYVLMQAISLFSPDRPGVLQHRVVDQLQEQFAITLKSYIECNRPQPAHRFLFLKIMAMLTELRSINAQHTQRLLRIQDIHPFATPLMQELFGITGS
From the text: as §2

Aqueous solubility = assay type: physicochemical
SU-DHL-4 cells = experiment: Hepatocyte/lymphoma co-culture with CHOP: cancer cell death, viability, caspase-3; assay type: cell-based, human; details: hepatocyte/lymphoma co-culture, added to CHOP, FIGS. 10B-C
Description: HPH were cultured in collagen-coated 12-well plates and pretreated with vehicle control (0.1% DMSO) or hCAR activator (1 mmol/L) for 24 hours. The wells were then separated with […] polycarbonate membrane inserts (Sigma-Aldrich). A total of 0.5×10^6 SU-DHL-4 cells suspended in supplemented Williams' Medium E were transferred into the insert chamber with a final volume of 2 mL/well. In separate coculture experiments, HPH were replaced with either WT or CAR-KO HepaRG cells. The cocultures were exposed to designated concentrations of the chemotherapy drugs in CHOP in the presence or absence of hCAR activator for various time intervals, as indicated.
as §1
HPHs and H9c2 rat cardiomyocytes were seeded at 7.5×10^4 cells per well in 96-well plates. HPH were cultured for 24 hours before treatment with hCAR activator (1 mmol/L) or vehicle control (0.1% DMSO), followed by treatment with the chemotherapy drugs included in CHOP at a range of concentrations. Culture medium containing CHOP drugs and metabolites was exchanged between the cell types at pre-determined time points. A typical 3-[4,5-dimethylthiazol-2-yl]-2,5 diphenyl tetrazolium bromide (MTT) assay was carried out as described previously (21). Cell viability was expressed as the percentage of vehicle control (0.1% DMSO). Cocultured cells were assembled and treated as described above. The viability of the SU-DHL-4 cells was determined at selected time points with a Cellometer Auto T4 (Nexcelom Biosciences) using trypan blue exclusion.

SMILES	hCAR activation with preferred expression of CYP2B6 protein (CYP2B6)	other results
Clc1ccc(-c2nc3sccn3c2CNCCc2ccc(Cl)c(Br)c2)cc1 [DL 4102, 2-(3-bromo-4-chlorophenyl)-N-((6-(4-chlorophenyl)imidazo[2,1-b]thiazol-5-yl)methyl)ethan-1-amine]	activate hCAR resulted preferred expression of CYP2B6 protein	
Clc1ccc(-c2nc3sccn3c2CNCCc2ccc(Br)cc2)cc1 [DL 4100, 2-(4-bromophenyl)-N-((6-(4-chlorophenyl)imidazo[2,1-b]thiazol-5-yl)methyl)ethan-1-amine]	activate hCAR resulted preferred expression of CYP2B6 protein	
Clc1ccc(-c2nc3sccn3c2CNCCc2cccc(Br)c2)cc1 [DL4104, 2-(3-bromophenyl)-N-((6-(4-chlorophenyl)imidazo[2,1-b]thiazol-5-yl)methyl)ethan-1-amine]	activate hCAR resulted preferred expression of CYP2B6 protein	
Cl.Clc1ccc(-c2nc3sccn3c2CNCCc2ccc(Cl)c(Cl)c2)cc1 [DL4072, N-((6-(4-chlorophenyl)imidazo[2,1-b]thiazol-5-yl)methyl)-2-(3,4-dichlorophenyl)ethan-l-amine hydrochloride]	activate hCAR resulted preferred expression of CYP2B6 protein	activation of hCAR (hCAR): activated hCAR; activation of hPXR (hPXR): not hPXR
Clc1ccc(-c2nc3sccn3c2CNCCc2ccc(Cl)c(Cl)c2)cc1 [DL4097, N-((6-(4-chlorophenyl)imidazo[2,1-b]thiazol-5-yl)methyl)-2-(3,4-dichlorophenyl)ethan-1-amine]	activate hCAR resulted preferred expression of CYP2B6 protein	
FC(F)(F)c1ccc(CCNCc2c(-c3ccc(Cl)cc3)nc3sccn23)cc1Cl [DL4103, 2-(3-chloro-4-(trifluoromethyl)phenyl)-N-((6-(4-chlorophenyl)imidazo[2,1-b]thiazol-5-yl)methyl)ethan-1-amine]	activate hCAR resulted preferred expression of CYP2B6 protein	
Clc1ccc(CCNCc2c(-c3ccc(Cl)cc3)nc3sccn23)cc1 [DL4095, 2-(4-chlorophenyl)-N-((6-(4-chlorophenyl)imidazo[2,1-b]thiazol-5-yl)methyl)ethan-1-amine]	activate hCAR resulted preferred expression of CYP2B6 protein	
Clc1ccc(-c2nc3sccn3c2/C=N/CCc2ccc(Cl)c(Cl)c2)cc1 [DL4059, (E)-1-(6-(4-chlorophenyl)imidazo[2,1-b]thiazol-5-yl)-N-(3,4-dichlorophenethyl)methanimine]	activate hCAR resulted preferred expression of CYP2B6 protein	activation of hCAR (hCAR): low activity; activation of hPXR (hPXR): low activity
c1ccc2c(c1)CC(NCc1c(-c3ccc4ccccc4c3)nc3occn13)C2 [DL5016, N-((6-(naphthalen-2-yl)imidazo[2,1-b]oxazol-5-yl)methyl)-2,3-dihydro-1H-inden-2-amine]		hCAR activity (CYP2B6 reporter gene activation) compared with CITCO (hCAR; HepG2 cells, hCAR1+A plasmid, CYP2B6-2.2k luciferase reporter, 24 h, FIG. 2): higher hCAR-inducing activity than CITCO; also recorded: more effective than CITCO; induction of CYP2B6 over CYP3A4 at mRNA and protein levels (CYP2B6; human primary hepatocytes, 0.1-1 μM, 24 h (mRNA) and 72 h (protein), FIG. 3A): potent and selective induction of CYP2B6 over CYP3A4; aqueous solubility compared with CITCO (Aqueous solubility): improved aqueous solubility; effect on CHOP anticancer activity (cancer cell death) (SU-DHL-4 cells): potentiates the beneficial effects of CHOP in causing cancer cell death; also recorded: clearly enhanced the regimen's anticancer activity; effect on CHOP anticancer activity (cancer cell death) (SU-DHL-4 cells; listed as DL 5016): potentiate the beneficial effects of CHOP in causing cancer cell death
Clc1ccc(-c2nc3sccn3c2CNCCc2cccc(Cl)c2)cc1 [DL4094, 2-(3-chlorophenyl)-N-((6-(4-chlorophenyl)imidazo[2,1-b]thiazol-5-yl)methyl)ethan-1-amine]	activate hCAR resulted preferred expression of CYP2B6 protein	
